# Data from patent US20050009005A1, “Methods of using quantitative lipid metabolome data” (Lipomics Technologies, Inc., priority 2001, published 2005).
# Test system: de novo fatty acid synthesis
# Assay: Lipid metabolite profile of plasma, heart, liver and inguinal adipose of CL316,243-treated mice (trial 2; Tables 7 and 8)
# Type: in vivo
# Conditions: for 14:0 / 16:0 / 16:1n7 / 18:0 / 18:1n7 / 18:1n9 / Saturates / Total / Total n7 / Total n9 / Total nMole of FA: mean
# Description: It is understood that the described methods can be used to analyze lipid metabolites from other subjects, including particularly animals other than mice.
# Mouse tissue and plasma samples were a generous donation to Lipomics Technologies, Inc., from Dr. Edward Leiter of the Jackson Laboratory (Bar Harbor, Me.). Samples included the plasma, heart, liver and inguinal adipose of mice treated with pharmaceuticals or their corresponding controls.
# In trial 2, male, inbred NON mice were fed a control with or without the presence of the β-3 adrenergic agonist CL316,243 for four weeks (at 0.001% CL316,243 by weight in the dietary chow).
# In both studies, five treated and five control mice were used. Following the treatments and the killing of the mice, tissues and plasma were taken, chilled to −80 ° C. and shipped to the analysis laboratory at Lipomics Technologies in a frozen state.
# Tissue processing and lipid extraction, including provision of internal standards, was carried out essentially as described in Watkins et al. (J. Lipid Res. Papers in Press, 10.1184/jlf.M200169-JLF200, published August 16, 2002), and in co-owned international application PCT/US02/21426, entitled “GENERATING, VIEWING, INTERPRETING, AND UTILIZING A QUANTITATIVE DATABASE OF METABOLITES,” both of which are incorporated in their entirety herein by reference.
# The separation of lipid classes was performed in some instance by preparative thin-layer chromatography (TLC). To remove any residual metal or other damaging contaminants on the TLC plates, each plate was washed prior to use. Washing the plates is a three-step process that involves impregnating each plate with ethylenediamine tetraacetic acid (EDTA) and rinsing the plates once with methanol and once with chloroform. Each plate is first impregnated with 1 mM EDTA, pH 5.5, by ascending development using the method of Ruiz (J. Lipid Res. 38, 1482-1489, 1997). After each plate was completely developed, it was dried in air overnight. Once dry, each plate was developed in methanol, dried, and developed in chloroform in the same direction as the development with EDTA. The washed plates were then dried in air. Just prior to use, each plate was activated by heating to 110° C. for 10 minutes.
# To prepare the TLC chamber for chromatography, Whatman (Clifton, N.J.) filter paper was cut into 20×80-cm strips and wrapped around the inside wall of a 30×60×10-cm glass development chamber. One hundred milliliters of the appropriate mobile phase was added to the chamber, and the chambers were sealed and allowed to equilibrate. Chambers were considered equilibrated when the solvent front had completely ascended the filter paper. The mobile phase employed for the separation of phospholipid classes (lyso-phospholipids, sphingomyelin, phosphatidylcholine, phosphatidylserine, phosphatidylethanolamine and cardiolipin) was a modification of the solvent system described by Holub and Skeaf (“Nutritional regulation of cellular phosphatidylinositol,” in Methods in Enzymology, ed. Conn, P. M. (Academic Press, Inc., Orlando), pp. 234-243, 1987) consisting of chloroform/methanol/acetic acid/water (100:67:7:4, by volume).
# For the separation of neutral lipid classes (free fatty acids, free sterols, triacylglycerides and cholesterol esters), a solvent system consisting of petroleum ether/diethyl ether/acetic acid (80:20:1, by volume) was used (Mangold, Thin Layer Chromatography—A Laboratory Handbook (Springer-Verlag, New York), 1969).
# After the TLC plate was activated, the sample extracts were spotted onto the activated plate. As a general rule, samples were spotted at an estimated concentration such that no single lipid class was present at more than 25 jig per centimeter of plate width following chromatography. This ensured that the plate was not overloaded and minimized the risk of cross-contamination between lipid classes (cross-contamination is readily identified during sample analysis as each lipid class contains unique internal standards). […]
compound,measurement,setting,value
"C[C@H](Cc1ccc2c(c1)OC(C(=O)[O-])(C(=O)[O-])O2)NC[C@H](O)c1cccc(Cl)c1.[Na+].[Na+] [CL316,243]",14:0,"Adipose, CE",65.2 nanomoles per gram
same,16:0,"Adipose, CE",326.2 nanomoles per gram
same,16:1n7,"Adipose, CE",85.7 nanomoles per gram
same,18:0,"Adipose, CE",72.1 nanomoles per gram
same,18:1n7,"Adipose, CE",50.6 nanomoles per gram
same,18:1n9,"Adipose, CE",344.4 nanomoles per gram
same,14:0,"Adipose, FFA",833.3 nanomoles per gram
same,16:0,"Adipose, FFA",6822.9 nanomoles per gram
same,16:1n7,"Adipose, FFA",2652.0 nanomoles per gram
same,18:0,"Adipose, FFA",1467.5 nanomoles per gram
same,18:1n7,"Adipose, FFA",864.3 nanomoles per gram
same,18:1n9,"Adipose, FFA",9845.4 nanomoles per gram
same,14:0,"Adipose, PL",74.4 nanomoles per gram
same,16:0,"Adipose, PL",1403.3 nanomoles per gram
same,16:1n7,"Adipose, PL",291.2 nanomoles per gram
same,18:0,"Adipose, PL",1249.1 nanomoles per gram
same,18:1n7,"Adipose, PL",118.1 nanomoles per gram
same,18:1n9,"Adipose, PL",794.7 nanomoles per gram
same,14:0,"Adipose, TAG",79501.6 nanomoles per gram
same,16:0,"Adipose, TAG",666399.1 nanomoles per gram
same,16:1n7,"Adipose, TAG",265948.0 nanomoles per gram
same,18:0,"Adipose, TAG",73800.5 nanomoles per gram
same,18:1n7,"Adipose, TAG",49837.1 nanomoles per gram
same,18:1n9,"Adipose, TAG",793227.6 nanomoles per gram
same,14:0,"Adipose, lipid class CE",4.5 percentage of total fatty acids
same,16:0,"Adipose, lipid class CE",24.4 percentage of total fatty acids
same,16:1n7,"Adipose, lipid class CE",6.8 percentage of total fatty acids
same,18:0,"Adipose, lipid class CE",5.1 percentage of total fatty acids
same,18:1n7,"Adipose, lipid class CE",3.5 percentage of total fatty acids
same,18:1n9,"Adipose, lipid class CE",26.2 percentage of total fatty acids
same,Saturates,"Adipose, lipid class CE",35.7 percentage of total fatty acids
same,Total,"Adipose, lipid class CE",100.0 percentage of total fatty acids
same,Total n7,"Adipose, lipid class CE",10.3 percentage of total fatty acids
same,Total n9,"Adipose, lipid class CE",28.8 percentage of total fatty acids
same,14:0,"Adipose, lipid class FFA",2.6 percentage of total fatty acids
same,16:0,"Adipose, lipid class FFA",21.7 percentage of total fatty acids
same,16:1n7,"Adipose, lipid class FFA",9.2 percentage of total fatty acids
same,18:0,"Adipose, lipid class FFA",6.8 percentage of total fatty acids
same,18:1n7,"Adipose, lipid class FFA",2.8 percentage of total fatty acids
same,18:1n9,"Adipose, lipid class FFA",30.7 percentage of total fatty acids
same,Saturates,"Adipose, lipid class FFA",31.8 percentage of total fatty acids
same,Total,"Adipose, lipid class FFA",100.0 percentage of total fatty acids
same,Total n7,"Adipose, lipid class FFA",12.0 percentage of total fatty acids
same,Total n9,"Adipose, lipid class FFA",31.5 percentage of total fatty acids
same,14:0,"Adipose, lipid class PL",1.4 percentage of total fatty acids
same,16:0,"Adipose, lipid class PL",19.9 percentage of total fatty acids
same,16:1n7,"Adipose, lipid class PL",5.5 percentage of total fatty acids
same,18:0,"Adipose, lipid class PL",16.1 percentage of total fatty acids
same,18:1n7,"Adipose, lipid class PL",1.9 percentage of total fatty acids
same,18:1n9,"Adipose, lipid class PL",14.6 percentage of total fatty acids
same,Saturates,"Adipose, lipid class PL",39.0 percentage of total fatty acids
same,Total,"Adipose, lipid class PL",100.0 percentage of total fatty acids
same,Total n7,"Adipose, lipid class PL",7.4 percentage of total fatty acids
same,Total n9,"Adipose, lipid class PL",15.3 percentage of total fatty acids
same,14:0,"Adipose, lipid class TAG",3.3 percentage of total fatty acids
same,16:0,"Adipose, lipid class TAG",26.9 percentage of total fatty acids
same,16:1n7,"Adipose, lipid class TAG",10.8 percentage of total fatty acids
same,18:0,"Adipose, lipid class TAG",2.9 percentage of total fatty acids
same,18:1n7,"Adipose, lipid class TAG",2.0 percentage of total fatty acids
same,18:1n9,"Adipose, lipid class TAG",31.9 percentage of total fatty acids
same,Saturates,"Adipose, lipid class TAG",33.3 percentage of total fatty acids
same,Total,"Adipose, lipid class TAG",100.0 percentage of total fatty acids
same,Total n7,"Adipose, lipid class TAG",12.9 percentage of total fatty acids
same,Total n9,"Adipose, lipid class TAG",32.2 percentage of total fatty acids
same,lipid concentrations in plasma,"CL316,243 4 weeks vs controls",decreased
same,lipid synthesis in tissues,"CL316,243 4 weeks vs controls (Table 7)",decreased
same,vaccenic acid concentrations in these lipid classes,"CL316,243 4 weeks vs controls, heart, liver, adipose, plasma",typically decreased
same,14:0,"Heart, CE",59.3 nanomoles per gram
same,16:0,"Heart, CE",187.4 nanomoles per gram
same,16:1n7,"Heart, CE",36.2 nanomoles per gram
same,18:0,"Heart, CE",85.3 nanomoles per gram
same,18:1n7,"Heart, CE",19.6 nanomoles per gram
same,18:1n9,"Heart, CE",389.5 nanomoles per gram
same,Saturates,"Heart, CE",366.8 nanomoles per gram
same,Total n7,"Heart, CE",55.8 nanomoles per gram
same,Total n9,"Heart, CE",405.7 nanomoles per gram
same,Total nMole of FA,"Heart, CE",1226.9 nanomoles per gram
same,14:0,"Heart, CL",76.3 nanomoles per gram
same,16:0,"Heart, CL",231.1 nanomoles per gram
same,16:1n7,"Heart, CL",204.0 nanomoles per gram
same,18:0,"Heart, CL",397.1 nanomoles per gram
same,18:1n7,"Heart, CL",381.8 nanomoles per gram
same,18:1n9,"Heart, CL",956.2 nanomoles per gram
same,Saturates,"Heart, CL",776.3 nanomoles per gram
same,Total n7,"Heart, CL",585.8 nanomoles per gram
same,Total n9,"Heart, CL",1011.4 nanomoles per gram
same,Total nMole of FA,"Heart, CL",2975.1 nanomoles per gram
same,14:0,"Heart, FFA",181.4 nanomoles per gram
same,16:0,"Heart, FFA",1012.4 nanomoles per gram
same,16:1n7,"Heart, FFA",156.8 nanomoles per gram
same,18:0,"Heart, FFA",427.8 nanomoles per gram
same,18:1n7,"Heart, FFA",139.4 nanomoles per gram
same,18:1n9,"Heart, FFA",1964.0 nanomoles per gram
same,Saturates,"Heart, FFA",1683.2 nanomoles per gram
same,Total n7,"Heart, FFA",296.1 nanomoles per gram
same,Total n9,"Heart, FFA",2017.6 nanomoles per gram
same,Total nMole of FA,"Heart, FFA",6044.8 nanomoles per gram
same,14:0,"Heart, PC",94.6 nanomoles per gram
same,16:0,"Heart, PC",8127.9 nanomoles per gram
same,16:1n7,"Heart, PC",108.7 nanomoles per gram
same,18:0,"Heart, PC",5235.9 nanomoles per gram
same,18:1n7,"Heart, PC",568.2 nanomoles per gram
same,18:1n9,"Heart, PC",1990.2 nanomoles per gram
same,Saturates,"Heart, PC",13577.6 nanomoles per gram
same,Total n7,"Heart, PC",676.9 nanomoles per gram
same,Total n9,"Heart, PC",2052.1 nanomoles per gram
same,Total nMole of FA,"Heart, PC",15087.3 nanomoles per gram
same,14:0,"Heart, PE",27.5 nanomoles per gram
same,16:0,"Heart, PE",1814.0 nanomoles per gram
same,16:1n7,"Heart, PE",59.6 nanomoles per gram
same,18:0,"Heart, PE",5241.4 nanomoles per gram
same,18:1n7,"Heart, PE",250.5 nanomoles per gram
same,18:1n9,"Heart, PE",934.9 nanomoles per gram
same,14:0,"Heart, PL",170.5 nanomoles per gram
same,16:0,"Heart, PL",10799.7 nanomoles per gram
same,16:1n7,"Heart, PL",344.7 nanomoles per gram
same,18:0,"Heart, PL",13320.8 nanomoles per gram
same,18:1n7,"Heart, PL",1181.0 nanomoles per gram
same,18:1n9,"Heart, PL",4121.5 nanomoles per gram
same,14:0,"Heart, PS/I",33.4 nanomoles per gram
